Measurements as given in patent publication US6177592A, “Compounds” (priority 1997, dated 2001).

Legend:
[1] = system: tumor necrosis factor-α; experiment: TNF-α in serum of LPS endotoxin-shock mice; assay type: in vivo, mouse (CDF1); settings: for TNF in serum (Mean ± SE): n=5, control 2.32 ± 0.15
Method: (1) LPS (lipopolysaccharide manufactured by Sigma) was intraperitoneally injected (10 μg/mouse) to female CDF1 mice of eight weeks age (purchased from Nippon SLC at seven weeks age with bodyweight of 20 g followed by subjecting a preliminary breeding for one week at our end) and endotoxin-shock models were prepared. GM was orally administered at the dose of 100 and 1000 mg/kg at thirty minutes before administration of LPS. After one hour from the administration of LPS, blood was collected from the mice, serum was separated and amount of the tumor necrosis factor-α in the serum was measured by a commercially available ELISA kit (manufactured by Endogen).

[2] = system: tumor necrosis factor; experiment: TNF production from LPS-induced celiac macrophage; assay type: cell-based, mouse (CDF1)
Method: (2) Paraffin oil (Cosmo Bio) (2 ml) was intraperitoneally administered to female CDF1 mice of eight weeks age to induce celiac macrophage (M.phi.). After one week from administration of paraffin oil, 4 ml of an RPMI-1640 medium (Gibco) was intraperitoneally infused, well massaged and recovered to give celiac cells.
The celiac cells were washed with an RPMI-1640 medium twice and suspended in an PPMI1640 medium containing 10% of fetal calf serum (FCS; High-Clone) to adjust the cell concentration to 1×10^6 cells/ml. The cell solution (1 ml) prepared as such was planted on a 24-well plate and incubated in a CO2 incubator at 37° C. for two hours. Non-adhesion cells contained in the supernatant liquid after incubation was removed and the adhesion cells were used as celiac M . […]
After the incubation, 100 μl of 100 ng/ml LPS (manufactured by Sigma) was added and incubation was conducted for 24 hours more. After completion of the incubation, the supernatant liquid was recovered therefrom and the amount of TNF-a produced therein was determined using a commercially available ELISA kit (manufactured by Endogen).

[3] = system: Fas antigen; experiment: Fas antigen expression in Jurkat cells; assay type: cell-based, human; settings: 1-10 μM, 24 hours
Method: (2) Influence of GM on Fas antigen expression (productive induction) in Jurkat cells and Molt-3 cells was measured as follows. In a 10% FCS-containing RPMI 1640 medium containing 0, 1, 5, 10 or 20 μM of cyclopentenone or GM, 5×10^5 cell/ml of Jurkat cells or Molt-3 cells were incubated at 37° C. for 24 hours in the presence of 5% of CO2 and then subjected to a two-step immunostaining using an anti-Fas antibody (manufactured by Boehringer-Ingelheim) in accordance with a method of Munker [Munker, R.: Ann. Hematol., volume 70, pages 15-17 (1995)].
Fluorescence intensity of the stained 1×10^4 cells was measured by a flow cytometer (Orthocytron; manufactured by Ortho Diagnostic Systems) and ratio of the cell showing a predetermined or higher fluorescence intensity which were Fas antigen-expressing cells was calculated.

[4] = target: T1, topoisomerase II (Homo sapiens, UniProt P11388); experiment: Topoisomerase II inhibition (pBR322 relaxation); assay type: biochemical; design: key to Inhibiting Activity: -: a complete change from a supercoiled type to a relaxation type; +: a change in a medium degree; ++: most of supercoiled type remained; +++: there was no decrease in a supercoiled type at all
T1 construct: purchased TopoGEN
T1 sequence (P11388 whole entry): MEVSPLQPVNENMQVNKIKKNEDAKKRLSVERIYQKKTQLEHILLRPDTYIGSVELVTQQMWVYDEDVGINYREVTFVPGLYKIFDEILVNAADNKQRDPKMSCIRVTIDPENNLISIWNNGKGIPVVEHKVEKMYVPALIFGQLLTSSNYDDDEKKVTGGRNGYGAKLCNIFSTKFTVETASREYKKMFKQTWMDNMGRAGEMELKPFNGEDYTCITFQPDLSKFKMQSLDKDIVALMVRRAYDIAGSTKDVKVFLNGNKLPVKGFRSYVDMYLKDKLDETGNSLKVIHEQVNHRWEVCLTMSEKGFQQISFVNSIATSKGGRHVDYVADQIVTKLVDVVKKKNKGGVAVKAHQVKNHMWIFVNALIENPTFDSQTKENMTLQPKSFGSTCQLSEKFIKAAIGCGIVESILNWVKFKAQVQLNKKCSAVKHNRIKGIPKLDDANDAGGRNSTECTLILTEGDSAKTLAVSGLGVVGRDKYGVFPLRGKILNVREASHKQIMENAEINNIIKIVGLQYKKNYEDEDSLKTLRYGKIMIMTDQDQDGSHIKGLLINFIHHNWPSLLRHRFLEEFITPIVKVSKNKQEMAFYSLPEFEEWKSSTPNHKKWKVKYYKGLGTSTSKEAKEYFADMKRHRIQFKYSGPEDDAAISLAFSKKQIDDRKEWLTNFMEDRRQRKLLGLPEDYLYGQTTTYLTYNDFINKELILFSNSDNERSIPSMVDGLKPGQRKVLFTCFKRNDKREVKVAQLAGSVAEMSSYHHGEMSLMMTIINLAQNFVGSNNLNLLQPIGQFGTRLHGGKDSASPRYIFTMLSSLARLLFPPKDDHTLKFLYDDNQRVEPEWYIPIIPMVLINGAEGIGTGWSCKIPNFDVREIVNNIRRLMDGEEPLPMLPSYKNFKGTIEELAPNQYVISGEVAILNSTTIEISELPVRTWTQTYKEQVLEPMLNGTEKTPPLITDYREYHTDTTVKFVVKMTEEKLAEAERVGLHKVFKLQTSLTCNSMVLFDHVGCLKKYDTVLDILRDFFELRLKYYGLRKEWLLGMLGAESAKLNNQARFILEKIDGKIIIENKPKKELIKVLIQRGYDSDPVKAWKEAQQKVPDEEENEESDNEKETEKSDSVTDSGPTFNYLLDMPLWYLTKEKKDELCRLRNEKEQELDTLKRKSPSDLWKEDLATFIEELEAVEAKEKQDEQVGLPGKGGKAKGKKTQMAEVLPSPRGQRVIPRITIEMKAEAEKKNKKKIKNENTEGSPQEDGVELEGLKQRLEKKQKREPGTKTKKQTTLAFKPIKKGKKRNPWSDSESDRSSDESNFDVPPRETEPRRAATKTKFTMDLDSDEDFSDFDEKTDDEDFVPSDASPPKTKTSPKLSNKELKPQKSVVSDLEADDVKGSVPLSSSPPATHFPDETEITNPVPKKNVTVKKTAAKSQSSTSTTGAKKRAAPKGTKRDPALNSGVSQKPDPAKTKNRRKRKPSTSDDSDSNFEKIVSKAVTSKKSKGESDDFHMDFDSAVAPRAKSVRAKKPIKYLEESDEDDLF
Method: (1) One μl of 0.25 μg/μl pBR322 DNA (manufactured by Takara Shuzo) was added to a mixture of 2 μl of topoisomerase II (manufactured by TopoGEN, 2 units/μl), 2 μl of a buffer with a ten-fold diluted concentration [0.5M Tris-HCl (pH 8.0), 1.2M KCl, 0.1M MgCl2, 5 mM adenosine triphosphate and 5 mM dithiothreitol], 2 μl of 0.1% bovine serum albumin (manufactured by Takara Shuzo), 11 μl of distilled water and 2 μl of distilled water (a control) or a sample (50, 100, 200, 500, 1000 or 2500 μM of GM) and made to react at 37° C. After the reaction for 30 minutes, the reaction was stopped by adding 2 μl aqueous solution of 1% sodium dodecylsulfate, 50% glycerol and 0.02% Bromophenol Blue.
The above reaction solution (20 μl) was applied to 1% agarose gel prepared from agarose L03 (manufactured by Takara Shuzo) and TAE buffer [40 mM Tris, 5 mM sodium acetate and 1 mM disodium ethylenediaminetetraacetate (EDTA); adjusted to pH 7.8 with acetic acid] and electrophoresis was conducted in the TAE buffer. After the electrophoresis, the gel was dipped in an aqueous solution of 1 μg/ml ethidium bromide and irradiated with ultraviolet ray to observe the electrophoretic pattern of DNA.

[5] = target: T2, topoisomerase I (Homo sapiens, UniProt P11387); experiment: Topoisomerase I inhibition; assay type: biochemical; settings: 1 mM GM
T2 construct: pBR322 supercoil relaxation assay
T2 sequence (P11387 whole entry): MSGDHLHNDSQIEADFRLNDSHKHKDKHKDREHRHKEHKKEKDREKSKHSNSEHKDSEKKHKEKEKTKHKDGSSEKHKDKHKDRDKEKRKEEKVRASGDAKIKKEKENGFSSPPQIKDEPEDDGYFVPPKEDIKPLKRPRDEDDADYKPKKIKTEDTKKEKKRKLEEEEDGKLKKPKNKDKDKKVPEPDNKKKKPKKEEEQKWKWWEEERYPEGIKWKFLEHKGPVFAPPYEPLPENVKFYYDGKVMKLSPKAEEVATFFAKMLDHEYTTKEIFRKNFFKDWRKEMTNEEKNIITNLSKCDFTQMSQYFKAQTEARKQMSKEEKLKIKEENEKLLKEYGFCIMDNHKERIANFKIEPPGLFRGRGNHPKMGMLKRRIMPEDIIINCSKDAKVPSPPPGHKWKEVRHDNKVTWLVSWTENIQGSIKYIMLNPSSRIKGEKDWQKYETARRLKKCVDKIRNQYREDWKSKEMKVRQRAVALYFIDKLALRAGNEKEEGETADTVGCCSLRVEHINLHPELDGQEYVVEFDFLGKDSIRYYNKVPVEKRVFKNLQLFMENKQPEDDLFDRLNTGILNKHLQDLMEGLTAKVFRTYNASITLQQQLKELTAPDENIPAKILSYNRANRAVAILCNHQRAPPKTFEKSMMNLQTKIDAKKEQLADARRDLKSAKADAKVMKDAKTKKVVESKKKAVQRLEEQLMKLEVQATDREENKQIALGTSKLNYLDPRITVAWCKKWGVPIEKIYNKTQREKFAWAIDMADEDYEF
Method: (2) Activity of GM for inhibiting the topoisomerase I was measured by the same method as in Example 17-(1) except that topoisomerase I [manufacturedby TopoGEN, 0.01 unit/y 1] was used instead of topoisomerase II; and 100 mM Tris-HCl (pH 7.9), 10 mM EDTA, 1 mM spermidine and 50% glycerol were used as a buffer with a ten-fold diluted concentration. Incidentally, as a sample, GM was added to make the final concentration 1 mM.

[6] = system: sensitivity reaction of a delayed type; experiment: Delayed type hypersensitivity (ovine erythrocyte, pedal edema); assay type: in vivo, mouse (C57BL/6); settings: 30 and 300 mg/kg i.p., three days
Method: C57BL/6 mice (female, five weeks age, body weight about 20 g) were purchased from Nippon SLC and used for the experiment after a preliminary breeding for one week at our end. Ovine erythrocyte (manufactured by Shimizu Jikken Zairyo) which is an antigen provoking the sensitivity reaction of a delayed type was washed three times with a physiological saline solution (manufactured by Otsuka Pharmaceutical) to make […] and 203 μl of it was intraperitoneally injected to mice to subject to an antigen sensitization.
After five days from the sensitization, 40 μl of antigen which was prepared by the same manner was injected to right paw to induce an antigen whereby pedal edema was provoked. From the antigen-sensitized date, GM was intraperitoneally administered to mice (one group consisting of five mice) once daily at the dose of 30 mg/kg or 300 mg/kg for three days.
After two days from the antigen induction, volume of right paw of the mice was measured by a measuring device for pedal edema (manufactured by Ugo Basile) and used as an index for the sensitivity reaction of a delayed type. The measured value was given by calculating the increasing rate from the right paw volume of the mice measured before the antigen induction.

## N[C@@H](CCC(=O)N[C@@H](CSC1C=C(O)C(=O)C1)C(=O)NCC(=O)O)C(=O)O (stereo partly drawn) [GM, 2-hydroxy-4-glutathion-S-yl-2-cyclopenten-1-one]
[1]; 100 mg/kg oral
  TNF in serum (Mean ± SE): 2.22 ± 0.26 ng/mL
[1]; 1000 mg/kg oral
  inhibition of production of tumor necrosis factor (in words): significantly inhibited
  TNF in serum (Mean ± SE): 1.16 ± 0.26 ng/mL
[2]; Example 8
  inhibition activity of TNF production (in words): inhibition activity of the production of tumor necrosis factor
[2]; Mus musculus, Macrophage, read-out: concentration which significantly inhibited TNF production, LPS-induced, 24 hours
  minimal effective concentration: ≥ 10 µM
[3]
  ratio of Fas antigen-expressing cells: the ratio of Fas antigen-expressing cells increased on a concentration-dependent manner
[4]
  concentration at which change of DNA to relaxation type was partially or completely inhibited: ≥ 10 µM
[4]; 5 μM
  Inhibiting Activity: -
[4]; 10 μM
  Inhibiting Activity: +
[4]; 20 μM
  Inhibiting Activity: ++
[4]; 50 μM
  Inhibiting Activity: ++
[4]; 100 μM
  Inhibiting Activity: +++
[4]; 250 μM
  Inhibiting Activity: +++
[5]
  inhibition of topoisomerase I: topoisomerase I was inhibited by 1 mM GM
[6]
  inhibiting action to a sensitivity reaction of a delayed type: significant inhibiting action to a sensitivity reaction of a delayed type
